{"source": "patent US12221422B2", "about": "“Compounds and their use for the treatment of alpha1-antitrypsin deficiency” (CENTESSA PHARMACEUTICALS (UK) LIMITED, priority 2018, dated 2025)", "key": {"[1]": {"target": "T1, human Siiyama A1AT (Homo sapiens, UniProt P01009, S77F)", "T1 construct": "expressed in transfected cells; host or cells: HEK-Siiyama (HEK-EBNA cells containing the Siiyama A1AT plasmid)", "T1 sequence (P01009 25-418 S77F)": "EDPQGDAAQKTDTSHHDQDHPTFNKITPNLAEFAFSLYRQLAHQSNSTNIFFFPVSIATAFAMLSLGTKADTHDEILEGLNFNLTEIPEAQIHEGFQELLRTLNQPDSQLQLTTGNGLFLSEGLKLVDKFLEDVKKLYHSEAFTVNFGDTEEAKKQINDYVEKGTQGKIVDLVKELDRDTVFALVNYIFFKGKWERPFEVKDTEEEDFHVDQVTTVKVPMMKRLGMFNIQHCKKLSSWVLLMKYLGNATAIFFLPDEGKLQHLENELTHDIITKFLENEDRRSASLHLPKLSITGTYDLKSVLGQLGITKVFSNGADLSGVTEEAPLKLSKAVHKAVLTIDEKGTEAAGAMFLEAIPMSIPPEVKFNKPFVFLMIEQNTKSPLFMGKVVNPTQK", "test": "A1AT cell secretion assay using HEK-Siiyama cells (ELISA)", "assay_type": "cell-based", "conditions": "1 or 10 μM, 48 h", "description": "HEK-Siiyama cells, a human embryonic kidney cell line stably transfected with the human Siiyama A1AT gene, were plated into 96 well plates (3.0×10^5 cells/ml with 200 μl of media/well) overnight at 37° C. in a humidified atmosphere containing 5% CO2. Following incubation cells were washed with 200 μl serum-free media three times and media was replaced with serum-free media containing either vehicle, 10 μM suberanilohydroxamic acid (SAHA) or a compound of the invention (at 1 or 10 μM) in replicates of eight for 48 h in a 37° C. incubator in a final volume of 200 μl. […]\nBriefly, a 96 well plate was coated with human A1AT capture antibody overnight at room temperature (1:180 dilution from stock, 100 μl final volume/well). […] After which, 50 μl stop solution (2M H2SO4) was added and optical density (OD) of each well was read at 450 nm with 570 nm blank subtracted from each well using a microplate reader. A 4 parameter logistic curve was constructed using GraphPad Prism 7 and A1AT concentrations were determined in each sample by interpolation from a standard curve and multiplying by the appropriate dilution factor.\nThe amount of human A1AT secreted from transfected HEK-EBNA cells into the media was measured by ELISA. […]"}, "[2]": {"test": "Pharmacokinetics in rats", "assay_type": "in vivo", "conditions": "rat, whole blood, Sprague Dawley rats", "description": "Compounds were administered to Sprague Dawley rats intravenously (2 mg/kg) or orally (10 mg/kg) by gavage. Whole blood diluted with water was prepared from these dosed animals over a time course up to 24 hours post dose to allow blood concentrations of drug to be measured by UPLC-MS/MS."}, "[3]": {"test": "Plasma protein binding, human plasma (rapid equilibrium dialysis)", "assay_type": "in vitro ADME", "conditions": "37° C.", "description": "The extent to which compounds of the invention bound to plasma proteins such as albumin and alpha-1 acid glycoprotein within human, rat or mouse plasma was determined by rapid equilibrium dialysis. Compounds were incubated at 5 μM for 4 hours at 37° C. Plasma protein binding for N,N-dimethyl-4-((6-oxopyrimidin-1(6H)-yl)methyl)benzamide in mouse plasma was 37.3%, in rat plasma was 14.8% and in human plasma was 30.6%."}, "[4]": {"target": "T2, CYP 1A2 (Homo sapiens, UniProt P05177)", "T2 construct": "purchased CYPEX; host or cells: E. coli", "T2 sequence (P05177 1-516)": "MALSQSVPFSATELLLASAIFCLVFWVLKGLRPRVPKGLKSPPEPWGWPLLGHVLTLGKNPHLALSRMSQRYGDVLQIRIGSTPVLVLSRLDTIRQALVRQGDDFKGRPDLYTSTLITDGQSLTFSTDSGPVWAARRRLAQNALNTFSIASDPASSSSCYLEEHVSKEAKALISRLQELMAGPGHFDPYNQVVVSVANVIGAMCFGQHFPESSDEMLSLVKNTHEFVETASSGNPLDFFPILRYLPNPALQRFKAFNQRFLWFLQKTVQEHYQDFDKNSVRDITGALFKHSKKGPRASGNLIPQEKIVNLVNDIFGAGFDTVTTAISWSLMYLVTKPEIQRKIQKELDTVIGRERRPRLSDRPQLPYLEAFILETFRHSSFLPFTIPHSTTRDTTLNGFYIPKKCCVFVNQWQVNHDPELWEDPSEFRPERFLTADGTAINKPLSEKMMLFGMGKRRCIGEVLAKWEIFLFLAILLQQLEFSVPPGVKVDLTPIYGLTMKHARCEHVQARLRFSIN", "test": "CYP inhibition, E. coli CYPEX membranes", "assay_type": "in vitro ADME", "conditions": "specific probe substrates", "description": "(§1) Using E. coli CYPEX membranes in combination with specific probe substrates, the inhibition of individual CYPs by compounds of the invention using the method described in Weaver et al., 2003, Drug Metab Dispos 31:7, 955-966 was assessed."}, "[5]": {"target": "T3, CYP 2C19 (Homo sapiens, UniProt P33261)", "T3 construct": "purchased CYPEX; host or cells: E. coli", "T3 sequence (P33261 whole entry)": "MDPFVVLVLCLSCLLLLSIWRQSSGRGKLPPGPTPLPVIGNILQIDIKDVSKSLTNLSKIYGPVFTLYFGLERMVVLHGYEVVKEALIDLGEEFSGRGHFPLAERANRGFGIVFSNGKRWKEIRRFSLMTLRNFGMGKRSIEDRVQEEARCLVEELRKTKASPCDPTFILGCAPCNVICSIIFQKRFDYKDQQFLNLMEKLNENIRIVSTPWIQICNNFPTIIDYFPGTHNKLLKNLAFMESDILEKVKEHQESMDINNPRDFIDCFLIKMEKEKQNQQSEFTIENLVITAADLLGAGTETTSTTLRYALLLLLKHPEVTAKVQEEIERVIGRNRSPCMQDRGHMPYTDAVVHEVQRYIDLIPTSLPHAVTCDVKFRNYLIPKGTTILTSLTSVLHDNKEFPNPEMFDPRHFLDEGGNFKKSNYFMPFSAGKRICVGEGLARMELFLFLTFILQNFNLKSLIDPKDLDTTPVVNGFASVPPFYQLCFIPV", "test": "CYP inhibition, E. coli CYPEX membranes", "assay_type": "in vitro ADME", "conditions": "specific probe substrates", "description": "as §1"}, "[6]": {"target": "T4, CYP 2C9 (Homo sapiens, UniProt P11712)", "T4 construct": "purchased CYPEX; host or cells: E. coli", "T4 sequence (P11712 whole entry)": "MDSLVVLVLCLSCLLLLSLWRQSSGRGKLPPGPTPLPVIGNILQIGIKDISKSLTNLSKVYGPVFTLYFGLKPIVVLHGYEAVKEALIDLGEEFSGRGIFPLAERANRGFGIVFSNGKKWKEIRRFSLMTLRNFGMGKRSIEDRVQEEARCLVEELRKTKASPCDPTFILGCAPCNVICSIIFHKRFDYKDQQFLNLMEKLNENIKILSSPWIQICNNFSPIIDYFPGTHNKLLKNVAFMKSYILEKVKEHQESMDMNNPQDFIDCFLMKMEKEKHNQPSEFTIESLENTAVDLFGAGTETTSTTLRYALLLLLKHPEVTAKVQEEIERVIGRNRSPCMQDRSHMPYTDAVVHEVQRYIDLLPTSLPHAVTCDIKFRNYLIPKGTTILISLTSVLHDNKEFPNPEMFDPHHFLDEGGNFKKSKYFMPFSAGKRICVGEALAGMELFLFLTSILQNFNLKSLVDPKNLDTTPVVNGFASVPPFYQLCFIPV", "test": "CYP inhibition, E. coli CYPEX membranes", "assay_type": "in vitro ADME", "conditions": "specific probe substrates", "description": "as §1"}, "[7]": {"target": "T5, CYP 2D6 (Homo sapiens, UniProt P10635)", "T5 construct": "purchased CYPEX; host or cells: E. coli", "T5 sequence (P10635 whole entry)": "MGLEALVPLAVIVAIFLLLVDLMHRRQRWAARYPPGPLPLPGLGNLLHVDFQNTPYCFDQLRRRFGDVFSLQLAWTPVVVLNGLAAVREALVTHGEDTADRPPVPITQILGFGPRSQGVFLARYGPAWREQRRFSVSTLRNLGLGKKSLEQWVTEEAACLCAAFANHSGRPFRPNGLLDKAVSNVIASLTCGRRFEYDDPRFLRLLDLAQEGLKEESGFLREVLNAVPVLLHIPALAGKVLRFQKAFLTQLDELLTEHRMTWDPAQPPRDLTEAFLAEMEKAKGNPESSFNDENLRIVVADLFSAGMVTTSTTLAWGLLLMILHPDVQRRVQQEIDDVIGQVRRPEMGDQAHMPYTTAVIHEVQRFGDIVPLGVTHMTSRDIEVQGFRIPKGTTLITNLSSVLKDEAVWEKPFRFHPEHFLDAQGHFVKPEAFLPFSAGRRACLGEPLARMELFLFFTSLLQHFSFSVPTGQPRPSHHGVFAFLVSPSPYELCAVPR", "test": "CYP inhibition, E. coli CYPEX membranes", "assay_type": "in vitro ADME", "conditions": "specific probe substrates", "description": "as §1"}, "[8]": {"target": "T6, CYP 3A4 (Homo sapiens, UniProt P08684)", "T6 construct": "purchased CYPEX; host or cells: E. coli", "T6 sequence (P08684 whole entry)": "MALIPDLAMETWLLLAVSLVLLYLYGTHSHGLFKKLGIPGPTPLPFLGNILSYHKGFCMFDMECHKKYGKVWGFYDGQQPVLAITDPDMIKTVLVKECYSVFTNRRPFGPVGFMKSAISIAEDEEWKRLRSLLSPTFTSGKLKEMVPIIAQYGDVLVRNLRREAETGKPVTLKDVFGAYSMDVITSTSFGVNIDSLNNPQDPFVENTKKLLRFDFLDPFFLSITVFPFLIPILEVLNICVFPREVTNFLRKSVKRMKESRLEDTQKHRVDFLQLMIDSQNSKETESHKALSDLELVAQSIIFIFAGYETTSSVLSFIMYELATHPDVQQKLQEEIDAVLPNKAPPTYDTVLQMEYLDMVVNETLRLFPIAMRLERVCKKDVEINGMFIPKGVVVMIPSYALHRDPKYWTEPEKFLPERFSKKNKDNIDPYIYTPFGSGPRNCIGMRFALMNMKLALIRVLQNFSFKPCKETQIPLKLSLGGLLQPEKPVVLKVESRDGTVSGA", "test": "CYP inhibition, E. coli CYPEX membranes", "assay_type": "in vitro ADME", "conditions": "specific probe substrates", "description": "as §1"}, "[9]": {"target": "cardiac potassium (hERG) channels (Homo sapiens, UniProt Q12809)", "sequence (Q12809 whole entry)": "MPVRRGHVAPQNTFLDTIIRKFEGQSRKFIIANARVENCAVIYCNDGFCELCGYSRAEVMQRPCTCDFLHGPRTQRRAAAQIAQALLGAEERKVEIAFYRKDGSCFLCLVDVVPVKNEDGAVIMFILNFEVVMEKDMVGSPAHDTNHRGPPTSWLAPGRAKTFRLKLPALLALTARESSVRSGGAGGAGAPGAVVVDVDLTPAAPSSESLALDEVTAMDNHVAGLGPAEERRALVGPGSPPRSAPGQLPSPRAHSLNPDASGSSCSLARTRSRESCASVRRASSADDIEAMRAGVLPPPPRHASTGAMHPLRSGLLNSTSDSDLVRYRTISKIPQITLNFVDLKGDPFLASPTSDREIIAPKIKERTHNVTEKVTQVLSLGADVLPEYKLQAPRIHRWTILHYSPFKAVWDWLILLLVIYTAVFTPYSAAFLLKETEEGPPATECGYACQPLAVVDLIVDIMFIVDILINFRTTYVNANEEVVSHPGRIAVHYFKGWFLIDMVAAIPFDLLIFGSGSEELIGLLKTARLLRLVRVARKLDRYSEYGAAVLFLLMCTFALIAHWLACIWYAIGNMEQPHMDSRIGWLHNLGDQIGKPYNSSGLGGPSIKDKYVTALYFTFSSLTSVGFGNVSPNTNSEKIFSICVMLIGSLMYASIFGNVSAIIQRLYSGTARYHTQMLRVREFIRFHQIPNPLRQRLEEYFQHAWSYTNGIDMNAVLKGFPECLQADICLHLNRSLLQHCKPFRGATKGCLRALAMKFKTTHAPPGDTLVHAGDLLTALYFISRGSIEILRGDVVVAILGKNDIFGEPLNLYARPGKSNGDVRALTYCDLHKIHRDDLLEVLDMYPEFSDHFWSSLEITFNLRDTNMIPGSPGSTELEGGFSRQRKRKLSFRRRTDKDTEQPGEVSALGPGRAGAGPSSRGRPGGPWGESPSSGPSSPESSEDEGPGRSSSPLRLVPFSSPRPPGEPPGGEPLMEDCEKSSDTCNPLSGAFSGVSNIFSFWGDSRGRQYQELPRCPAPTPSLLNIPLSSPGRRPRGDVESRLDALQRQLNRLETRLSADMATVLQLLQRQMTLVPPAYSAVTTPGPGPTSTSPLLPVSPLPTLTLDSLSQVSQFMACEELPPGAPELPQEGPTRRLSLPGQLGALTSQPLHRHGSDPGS", "test": "hERG channel inhibition, Patchliner automated patch clamp", "assay_type": "cell-based", "conditions": "automated patch clamp, maximum test concentration 100 μM", "description": "(§2) Compounds of the invention were tested for inhibition of cardiac potassium (hERG) channels using the Patchliner automated patch clamp. 6-Point concentration-response curves were generated using half-log serial dilutions from a maximum final test concentration of 100 μM. IC50 values were obtained from a 4-parameter logistic fit of the concentration-response data. […] Reference compound values were consistent with those presented in the literature (Elkins et al., 2013 J. Pharm. Tox. Meth. 68:11-122)."}, "[10]": {"target": "hERG (Homo sapiens, UniProt Q12809)", "sequence (Q12809 whole entry)": "as above", "test": "hERG channel inhibition, Patchliner automated patch clamp", "assay_type": "cell-based", "conditions": "human; at 100 μM", "description": "as §2"}}}
{"molecule": "CN(C)C(=O)c1ccc(Cn2cnccc2=O)cc1", "note": "[N,N-dimethyl-4-((6-oxopyrimidin-1(6H)-yl)methyl)benzamide]", "values": [{"measurement": "secretion of Siiyama A1AT as measured by ELISA", "setting": "[1]", "value": "does not stimulate secretion of Siiyama A1AT"}, {"measurement": "half-life", "setting": "[2]; iv 2 mg/kg or oral 10 mg/kg, read-out: Half-life in blood (t1/2)", "value": 55, "unit": "min"}, {"measurement": "clearance", "setting": "[2]; iv 2 mg/kg or oral 10 mg/kg, read-out: Observed clearance", "value": 10.6, "unit": "mL/min/kg"}, {"measurement": "Vd", "setting": "[2]; iv 2 mg/kg or oral 10 mg/kg, read-out: Volume of distribution (Vz)", "value": 0.84, "unit": "L/kg"}, {"measurement": "bioavailability", "setting": "[2]; oral 10 mg/kg vs iv 2 mg/kg, read-out: Oral Bioavailability (F)", "value": 104, "unit": "%"}, {"measurement": "Cmax", "setting": "[2]; oral 10 mg/kg, blood", "value": 5330, "unit": "ng/mL"}, {"measurement": "AUC(0-inf)", "setting": "[2]; oral 10 mg/kg, blood, read-out: Oral AUCINF", "value": 16500, "unit": "ng·h/mL"}, {"measurement": "fraction unbound at 4 h, 5 μM", "setting": "[3]", "value": 0.694}, {"measurement": "IC50", "setting": "[4]", "value": "> 50", "unit": "µM"}, {"measurement": "IC50", "setting": "[5]", "value": "> 50", "unit": "µM"}, {"measurement": "IC50", "setting": "[6]", "value": "> 50", "unit": "µM"}, {"measurement": "IC50", "setting": "[7]", "value": "> 50", "unit": "µM"}, {"measurement": "IC50", "setting": "[8]", "value": "> 50", "unit": "µM"}, {"measurement": "IC50", "setting": "[9]", "value": "> 100", "unit": "µM"}, {"measurement": "inhibition at 100 µM", "setting": "[10]", "value": 7, "unit": "%"}]}
